Measurements reported in PubChem BioAssay (NCI).
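Cells were grown in 96-well plates and exposed to each compound for 48 hours at five concentrations; endpoints were interpolated linearly between bracketing concentrations, or set to the highest concentration if not reached. TGI marks complete inhibition of growth.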

Columns and labels:
Test in all cases: NCI anticancer screen, dose series, 48 h
XF 498 CNS = system: XF 498 CNS
DMS 273 small cell lung = system: DMS 273 small cell lung
M19-MEL melanoma = system: M19-MEL melanoma
SNB-78 CNS = system: SNB-78 CNS
RXF-631 renal = system: RXF-631 renal
T-47D breast = system: T-47D breast
MDA-MB-231 breast = system: MDA-MB-231 breast
BT-549 breast = system: BT-549 breast
MDA-N = system: MDA-N

Structure (SMILES)	TGI (XF 498 CNS) [µM]	TGI (DMS 273 small cell lung) [µM]	TGI (M19-MEL melanoma) [µM]	TGI (SNB-78 CNS) [µM]	TGI (RXF-631 renal) [µM]	TGI (T-47D breast) [µM]	TGI (MDA-MB-231 breast) [µM]	TGI (BT-549 breast) [µM]	TGI (MDA-N) [µM]
CC1CC(c2ccccc2)=Nc2ccccc2S1(=O)=O (stereo not given)	32.7	38.3	30.5	30.8					
N#CCCc1nc2ccc(Br)cc2c(=O)n1CCO	> 100		> 100	> 100	> 100				
CCN(CC)CCn1c2c3ccccc3ccc2c2oc(=O)c3ccccc3c21	> 100		> 100	> 100	> 100				
CC(=O)O/N=C/c1ncccc1CO	> 100	> 100	> 100		> 100				
CC(=O)NC(CCCCNC(=O)OCc1ccccc1)C(=O)NCc1ccccc1 (stereo not given)	> 100	> 100	> 100	> 100					
CC1=C2C(O)C(C(C)CO)C(O)CC2(C)C(O)CC1 (stereo not given)		> 100	> 100	> 100	> 100				
COc1ccc(NC(=O)C2C(=O)N(c3ccc(OC)cc3)C(=O)/C2=N/O)cc1 (stereo not given)	18.7	> 81.1	61.1	> 100					
Cc1nc2ccc(C(F)(F)F)cc2nc1Nc1ccc(Cl)c(Cl)c1	22.2	16.1	24.4	34.4	20.1				
Cc1nc(N)sc1C(=O)/C=C/c1ccc(/C=C/C(=O)c2sc(NC(=O)CCCCCCCCC(=O)Nc3nc(C)c(C(=O)/C=C/c4ccc(/C=C/C(=O)c5sc(N)nc5C)cc4)s3)nc2C)cc1	> 100	> 100	> 100	> 100	> 100				
CC1(C)C(=O)N(c2ccccc2)C(=O)N1c1nc2ccccc2[nH]1	> 100	> 100	> 100	> 100	> 100				
CCOC(=O)C(C)(C)Oc1ccc2c(=O)cc(-c3ccc(Cl)cc3)oc2c1	> 100	> 100	> 100		> 100				
NC(=O)c1c[se]c(C2OC(CO)C(O)C2O)n1 (stereo not given)	> 100	> 100	> 100		> 100	> 100	> 100	> 100	> 100
CC(=O)O[C@H]1C(N(C)C(=O)c2ccccc2)CC[C@]2(C)C3CC[C@@]4(C)C(CC(O)[C@@H]4C(C)N(C)C)[C@@H]3CCC12 (stereo not given in full)	> 100	> 100	> 100	> 100					
O=C(C(O)c1cn(Cc2ccccc2)c2ccccc12)N1CCCCC1 (stereo not given)	> 100	> 100	> 100	> 10					
CCOc1ccccc1NC(=O)/C=C1\NC(=O)CS1	> 100	> 100	> 100	> 100					
Cc1cc2c(CC(=O)O)[nH]nc2c(C(=O)O)c1C	> 100	> 100	> 100	> 100	> 100				

Structure (SMILES)	TGI (XF 498 CNS) [µM]	TGI (DMS 273 small cell lung) [µM]	TGI (M19-MEL melanoma) [µM]	TGI (SNB-78 CNS) [µM]	TGI (RXF-631 renal) [µM]	TGI (T-47D breast) [µM]	TGI (MDA-MB-231 breast) [µM]	TGI (BT-549 breast) [µM]	TGI (MDA-N) [µM]
C=CCCCCCCCCCCCC1CCC(CC)N1 (stereo not given)		5.92	16.2	37.8	23.5				
CCN(CC)c1ccc(N=Nc2ccc(-c3nc4cccnc4o3)cc2)cc1	> 100	> 100	> 100	> 100					
CCCC(=O)c1c(NOC2OC(COC(C)=O)C(OC(C)=O)C(OC(C)=O)C2OC(C)=O)nc(OC)n(C)c1=O (stereo not given)	> 100	> 100	> 100	> 100					
N#CC(C#N)=C(N)/C(C#N)=C\c1ccnc2ccccc12	69.7	40.5	40.8	> 100					
COc1ccc(-c2c(C3=NCCN3)nnn2-c2ccccc2)cc1	> 100	> 100	> 100	> 100					
COC(=O)c1c(-c2ccccc2)cc2c3cc(-c4ccccc4)c(C(=O)OC)n3c3ccccc3n12	> 100	> 100	> 100	> 100	> 100				
CCCCC#COP(=O)(OCC)OCC			> 100	> 100	> 100				
COc1cc(-c2cc(=O)c3cc4c(cc3[nH]2)OCO4)cc(OC)c1OC	> 100	> 100	> 100	> 100					
CC(=O)N/C(=C\c1ccc(/C=C(\NC(C)=O)c2nc3ccc(Cl)cc3[nH]2)cc1)c1nc2ccccc2[nH]1	> 100	> 100	> 100	> 100	> 100				
CC(C)=CC(C(O)c1ccccc1)S(=O)(=O)c1nccn1C (stereo not given)	> 100	> 100	> 100		> 100				
NC(N)=N/N=C(/c1nc2ccc([N+](=O)[O-])cc2[nH]c1=O)C(O)c1ccco1 (stereo not given)	> 100	> 100	> 100	> 100					
C=CCc1cc2cccc(OC)c2oc1=O	53.5	> 100	> 100	> 100	> 100				
O=C1C(Br)=C[C@H]2C3C=CC(Br)(C3=O)[C@@H]12 (stereo not given in full)	31.2	27	24.8	> 100	50.1				
CCN(CC)CCC1CC/C(=C\c2ccc(OC)cc2)C1=O (stereo not given)	> 100	> 100	> 100	> 100					
COP1(=O)CC2C(Cl)(Cl)C2(C)C1 (stereo not given)	> 100	> 100	> 100	> 100					
